Results taken from ChEMBL document CHEMBL1201862, “PubChem BioAssay data set” (2004).
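96-well plates; 48 h exposure; 5 concentrations. Endpoints by linear interpolation between flanking doses. Not reached: highest tested concentration assigned. GI50 marks 50% less growth.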 Active and inactive are the calls of the source. Rule as the data show it: active = GI50 up to about 1.1 µM and inactive = higher.

How the values were obtained:
Experiment in all cases: NCI tumour cell line growth inhibition, 48 h
A498 = tested on: A498
A549 = tested on: A549
CAKI-1 = tested on: CAKI-1
COLO 205 = tested on: COLO 205
HOP-62 = tested on: HOP-62
Hs-578T = tested on: Hs-578T
IGROV-1 = tested on: IGROV-1
K562 = tested on: K562
LOX IMVI = tested on: LOX IMVI
MDA-N = tested on: MDA-N
MOLT-4 = tested on: MOLT-4
SF-268 = tested on: SF-268
SF-295 = tested on: SF-295
SF-539 = tested on: SF-539
SK-MEL-28 = tested on: SK-MEL-28
SK-MEL-2 = tested on: SK-MEL-2
SK-MEL-5 = tested on: SK-MEL-5
SNB-75 = tested on: SNB-75
UACC-257 = tested on: UACC-257
NCI-H226 = tested on: NCI-H226

Measured: GI50

CC1CNC(c2cccc(OCc3ccc(COc4cccc(C5=NC(C)CN5)c4)cc3)c2)=N1 (configuration not stated)
inactive: A498 > 100 µM | A549 40.6 µM | CAKI-1 > 100 µM | COLO 205 17 µM | HOP-62 40.6 µM | Hs-578T 20.2 µM | IGROV-1 > 100 µM | K562 5.7 µM | LOX IMVI 22 µM | MDA-N 38.6 µM | MOLT-4 19.3 µM | SF-268 35.6 µM | SF-295 66.8 µM | SF-539 16.3 µM | SK-MEL-28 61.7 µM | SK-MEL-2 20.8 µM | SK-MEL-5 22.9 µM | SNB-75 22.2 µM | UACC-257 12.6 µM

O=C(Nc1cccc(F)c1)c1cc2ccc(O)cc2o/c1=N\c1cccc(F)c1
inactive: A498 33 µM | A549 3.97 µM | CAKI-1 15.3 µM | COLO 205 > 100 µM | HOP-62 27.9 µM | Hs-578T 3.09 µM | IGROV-1 2.08 µM | K562 2.38 µM | LOX IMVI 3.27 µM | MDA-N 6.35 µM | MOLT-4 2.45 µM | SF-268 3.03 µM | SF-295 13.6 µM | SF-539 19.8 µM | SK-MEL-28 5.09 µM | SK-MEL-2 8.2 µM | SK-MEL-5 3.6 µM | UACC-257 9.68 µM

Cc1nc(N)sc1C(=O)Nc1nc[nH]n1
inactive: A549 > 100 µM | CAKI-1 > 100 µM | COLO 205 > 100 µM | HOP-62 > 100 µM | Hs-578T > 100 µM | IGROV-1 > 100 µM | K562 > 100 µM | LOX IMVI > 100 µM | MDA-N > 100 µM | MOLT-4 52.1 µM | NCI-H226 > 100 µM | SF-268 > 100 µM | SF-295 > 100 µM | SF-539 > 100 µM | SK-MEL-28 > 100 µM | SK-MEL-2 > 100 µM | SK-MEL-5 > 100 µM | UACC-257 > 100 µM

CC12CN(CC[N+](C)(C)C)CC1(C)C1CCC2O1 (configuration not stated)
inactive: A498 > 100 µM | A549 > 100 µM | CAKI-1 > 100 µM | COLO 205 > 100 µM | HOP-62 > 100 µM | Hs-578T > 100 µM | IGROV-1 > 100 µM | K562 > 100 µM | LOX IMVI > 100 µM | MOLT-4 > 100 µM | NCI-H226 > 100 µM | SF-268 > 100 µM | SF-295 > 100 µM | SF-539 > 100 µM | SK-MEL-28 > 100 µM | SK-MEL-2 > 100 µM | SK-MEL-5 > 100 µM | SNB-75 > 100 µM | UACC-257 > 100 µM

CCOC(=O)N(C)CCC1CC=CC(=O)C1c1cccc(OC)c1OC (configuration not stated)
inactive: A498 33.3 µM | A549 25.4 µM | CAKI-1 20.9 µM | COLO 205 4 µM | HOP-62 24.4 µM | Hs-578T 71.4 µM | IGROV-1 36.1 µM | K562 23.2 µM | LOX IMVI 38.7 µM | MDA-N 13.1 µM | MOLT-4 22.5 µM | SF-268 19.9 µM | SF-295 31 µM | SF-539 9.91 µM | SK-MEL-2 13.7 µM | SK-MEL-5 9.53 µM | UACC-257 13.4 µM

CC(=O)C1=C(C)N(c2ccc(C)cc2)C2(O)C3=C(C(=O)c4ccccc4C3=O)C(O)=CC12Cl (configuration not stated)
inactive: A498 3.15 µM | A549 17.5 µM | CAKI-1 10.4 µM | COLO 205 27.5 µM | HOP-62 32.2 µM | Hs-578T 6.28 µM | IGROV-1 11.1 µM | K562 7.43 µM | LOX IMVI 12.1 µM | MOLT-4 26.7 µM | NCI-H226 43 µM | SF-268 23.6 µM | SF-295 5.81 µM | SF-539 12.2 µM | SK-MEL-28 10.2 µM | SK-MEL-2 8.53 µM | SK-MEL-5 6.92 µM | SNB-75 21.9 µM | UACC-257 9.38 µM

CCOP(=O)(OCC)C(c1ccccc1)N(C(=O)NC(F)(F)F)c1cccc(F)c1 (configuration not stated)
inactive: A549 > 100 µM | CAKI-1 > 100 µM | COLO 205 > 100 µM | HOP-62 > 100 µM | Hs-578T 78.3 µM | IGROV-1 6.93 µM | K562 63.8 µM | LOX IMVI > 100 µM | MDA-N > 100 µM | MOLT-4 81.1 µM | NCI-H226 > 100 µM | SF-268 > 100 µM | SF-295 > 100 µM | SF-539 > 100 µM | SK-MEL-28 > 100 µM | SK-MEL-5 > 100 µM | SNB-75 > 100 µM | UACC-257 > 100 µM

N/N=C1/CCCc2nonc21
inactive: A549 > 100 µM | CAKI-1 > 100 µM | COLO 205 > 100 µM | HOP-62 > 100 µM | Hs-578T > 100 µM | IGROV-1 > 100 µM | K562 > 100 µM | LOX IMVI > 100 µM | MDA-N > 100 µM | MOLT-4 > 100 µM | SF-268 > 100 µM | SF-295 > 100 µM | SF-539 > 100 µM | SK-MEL-28 > 100 µM | SK-MEL-2 > 100 µM | SK-MEL-5 > 100 µM | UACC-257 > 100 µM

Cc1cs/c(=N/c2ccccc2)n1CCC(O)(P(=O)(O)O)P(=O)(O)O
inactive: A549 > 100 µM | CAKI-1 > 100 µM | COLO 205 > 100 µM | HOP-62 > 100 µM | Hs-578T > 100 µM | IGROV-1 > 100 µM | LOX IMVI > 100 µM | MDA-N > 100 µM | NCI-H226 > 100 µM | SF-268 > 100 µM | SF-295 > 100 µM | SF-539 > 100 µM | SK-MEL-5 71.6 µM | SNB-75 > 100 µM | UACC-257 > 100 µM

NNC(=O)c1ccccc1Nc1nc(-c2cccs2)nc2ccc(Br)cc12
inactive: A498 > 100 µM | A549 85.1 µM | CAKI-1 74.3 µM | COLO 205 > 100 µM | HOP-62 > 100 µM | Hs-578T > 100 µM | IGROV-1 > 100 µM | K562 77.6 µM | LOX IMVI 44.9 µM | MOLT-4 > 100 µM | NCI-H226 > 100 µM | SF-268 31.1 µM | SF-295 51.8 µM | SF-539 > 100 µM | SK-MEL-28 45.5 µM | SK-MEL-2 > 100 µM | SK-MEL-5 74 µM | SNB-75 45.4 µM | UACC-257 > 100 µM

Fc1ccccc1C1SCC2=Nc3ccccc3CN21 (configuration not stated)
inactive: A498 > 100 µM | A549 > 100 µM | CAKI-1 > 100 µM | COLO 205 > 100 µM | HOP-62 67.1 µM | Hs-578T > 100 µM | K562 > 100 µM | LOX IMVI > 100 µM | MDA-N > 100 µM | MOLT-4 > 100 µM | SF-268 54.1 µM | SF-295 70.8 µM | SF-539 94.8 µM | SK-MEL-28 > 100 µM | SK-MEL-2 43.6 µM | SK-MEL-5 89.7 µM | SNB-75 > 100 µM | UACC-257 > 100 µM
